Data as given in article PMC7370999, “The Neighboring Subunit Is Engaged to Stabilize the Substrate in the Active Site of Plant Arginases” (Frontiers in Plant Science, 2020).

Experiments:
AtARGAH1 [1] = target: T1, AtARGAH1 (Arabidopsis thaliana, UniProt P46637); experiment: turnover to ornithine during crystallization, seen in crystal structure; format: biochemical; details: 50 mM L-arginine in crystallization solution; Mn2+ enzyme
T1 construct: gene ARGAH1; starts at codon 25 (signal peptide removed), ends at residue 342; N-terminal His6-tag cut by TEV (vector pMCSG68); E. coli BL21 Gold; hexamer, calculated 209 kDa
T1 sequence (P46637 25-342): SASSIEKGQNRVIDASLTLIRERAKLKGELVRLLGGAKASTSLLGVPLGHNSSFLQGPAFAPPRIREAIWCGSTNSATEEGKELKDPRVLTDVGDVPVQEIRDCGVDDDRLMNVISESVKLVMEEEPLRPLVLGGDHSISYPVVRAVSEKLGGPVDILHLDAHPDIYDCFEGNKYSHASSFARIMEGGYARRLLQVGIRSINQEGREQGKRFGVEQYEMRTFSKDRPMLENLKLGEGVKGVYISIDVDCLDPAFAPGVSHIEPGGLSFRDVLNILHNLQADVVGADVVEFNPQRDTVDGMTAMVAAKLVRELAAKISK

MtARGAH = target: T2, MtARGAH (Medicago truncatula, UniProt G7JFU5); experiment: as above; format: biochemical; details: 50 mM L-arginine in cocrystallization; Mn2+ enzyme
T2 construct: gene ARGAH; full-length, 338 residues incl. predicted 15-residue signal peptide; N-terminal His6-tag cut by TEV (vector pMCSG68); E. coli BL21 Gold; hexamer, theoretical 224 kDa
T2 sequence (G7JFU5 1-338): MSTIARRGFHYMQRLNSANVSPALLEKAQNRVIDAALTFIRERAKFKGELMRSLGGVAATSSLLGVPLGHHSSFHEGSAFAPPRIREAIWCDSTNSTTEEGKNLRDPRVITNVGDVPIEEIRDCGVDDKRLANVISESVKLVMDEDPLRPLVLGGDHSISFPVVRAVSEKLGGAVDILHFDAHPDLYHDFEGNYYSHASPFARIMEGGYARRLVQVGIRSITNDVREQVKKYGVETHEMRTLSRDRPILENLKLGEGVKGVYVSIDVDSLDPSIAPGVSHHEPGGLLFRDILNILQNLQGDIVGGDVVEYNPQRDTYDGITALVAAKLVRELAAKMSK

AtARGAH1 [2] = target: T1, AtARGAH1; experiment: X-ray crystal structure, […] A; format: binding; details: product of arginine hydrolysis before crystal growth (50 mM L-arginine, 50 mM L-glutamic acid); binuclear Mn2+; active site, completed by loop L2* of neighbouring subunit

Row | SMILES | turnover to ornithine during crystallization, seen in crystal structure (AtARGAH1 [1]) | turnover to ornithine during crystallization, seen in crystal structure (MtARGAH) | X-ray crystal structure, 2.25 A (AtARGAH1 [2])
1 | N=C(N)NCCC[C@H](N)C(=O)O [L-arginine] | obtained as a result of in vitro arginine hydrolysis | obtained as a result of in vitro arginine hydrolysis | 
2 | NCCC[C@H](N)C(=O)O [ornithine] |  |  | Structures of AtARGAH1-ORN and MtARGAH-ORN with the reaction product, ornithine, were obtained
